# Assay results published in ChEMBL document CHEMBL3431459, “Roche carnitine palmitoyltransferase modulator screening data (supplementary data associated with the publication CHEMBL2216752)”.
# pIC50: −log10 of the molar value.
# Columns and labels:
# [1] = target: T1, Carnitine O-palmitoyltransferase 1, muscle isoform (Homo sapiens, UniProt Q92523); assay: SUPPLEMENTARY: Inhibition of Carnitine palmitoyltransferase 1, muscle isoform; parameters: species or system Muscle tissue
# T1 sequence (Q92523 whole entry): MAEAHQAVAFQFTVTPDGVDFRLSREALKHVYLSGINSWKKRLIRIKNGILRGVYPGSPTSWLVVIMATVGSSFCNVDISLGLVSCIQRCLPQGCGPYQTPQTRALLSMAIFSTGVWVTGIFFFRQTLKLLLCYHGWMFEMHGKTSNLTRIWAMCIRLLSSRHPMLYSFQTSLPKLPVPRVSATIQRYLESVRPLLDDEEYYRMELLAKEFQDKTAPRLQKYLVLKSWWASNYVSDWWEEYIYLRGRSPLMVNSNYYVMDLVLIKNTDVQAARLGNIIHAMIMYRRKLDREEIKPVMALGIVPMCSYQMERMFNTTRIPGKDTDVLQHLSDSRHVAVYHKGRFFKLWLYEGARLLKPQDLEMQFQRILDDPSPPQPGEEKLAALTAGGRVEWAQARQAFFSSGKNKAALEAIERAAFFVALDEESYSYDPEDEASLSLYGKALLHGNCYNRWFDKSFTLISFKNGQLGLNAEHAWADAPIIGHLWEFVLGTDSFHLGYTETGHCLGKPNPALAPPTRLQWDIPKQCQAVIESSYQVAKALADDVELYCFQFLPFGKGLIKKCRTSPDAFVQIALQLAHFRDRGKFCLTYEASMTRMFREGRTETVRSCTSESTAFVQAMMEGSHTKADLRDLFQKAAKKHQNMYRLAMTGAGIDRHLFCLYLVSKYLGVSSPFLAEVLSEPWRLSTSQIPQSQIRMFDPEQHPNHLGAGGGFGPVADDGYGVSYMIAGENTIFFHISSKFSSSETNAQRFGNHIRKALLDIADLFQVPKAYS
# [2] = SUPPLEMENTARY: Lyophilisation Solubility Assay (LYSA); type: physicochemical; conditions: read-out: Kinetic_solubility
# [3] = SUPPLEMENTARY: PAMPA permeability assay; type: physicochemical; conditions: read-out: Permeability
# [4] = target: T2, Carnitine O-palmitoyltransferase 1, liver isoform (Rattus norvegicus, UniProt P32198); assay: (§1) SUPPLEMENTARY: Inhibition of Carnitine palmitoyltransferase 1, liver isoform
# T2 sequence (P32198 whole entry): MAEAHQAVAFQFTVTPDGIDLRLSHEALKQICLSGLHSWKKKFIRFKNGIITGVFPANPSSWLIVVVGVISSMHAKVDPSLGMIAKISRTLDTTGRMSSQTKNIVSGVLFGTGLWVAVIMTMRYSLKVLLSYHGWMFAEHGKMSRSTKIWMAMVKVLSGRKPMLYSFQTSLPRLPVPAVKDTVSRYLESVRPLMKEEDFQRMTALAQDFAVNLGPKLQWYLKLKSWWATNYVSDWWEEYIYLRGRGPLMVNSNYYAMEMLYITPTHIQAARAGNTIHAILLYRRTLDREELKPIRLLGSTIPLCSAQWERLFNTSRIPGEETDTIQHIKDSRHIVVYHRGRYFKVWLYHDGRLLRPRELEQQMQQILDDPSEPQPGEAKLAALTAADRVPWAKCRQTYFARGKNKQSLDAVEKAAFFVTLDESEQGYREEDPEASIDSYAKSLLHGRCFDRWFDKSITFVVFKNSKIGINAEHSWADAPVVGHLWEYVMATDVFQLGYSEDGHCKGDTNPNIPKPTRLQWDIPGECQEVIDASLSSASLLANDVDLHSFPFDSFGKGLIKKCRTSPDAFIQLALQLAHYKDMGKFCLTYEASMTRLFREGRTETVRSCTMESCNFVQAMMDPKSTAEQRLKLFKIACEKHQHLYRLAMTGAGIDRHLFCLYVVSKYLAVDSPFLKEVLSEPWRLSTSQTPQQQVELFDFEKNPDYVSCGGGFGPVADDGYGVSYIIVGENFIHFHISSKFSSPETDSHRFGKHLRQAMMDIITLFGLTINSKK
# [5] = target: T3, Carnitine O-palmitoyltransferase 1, liver isoform (Homo sapiens, UniProt P50416); assay: as §1
# T3 sequence (P50416 whole entry): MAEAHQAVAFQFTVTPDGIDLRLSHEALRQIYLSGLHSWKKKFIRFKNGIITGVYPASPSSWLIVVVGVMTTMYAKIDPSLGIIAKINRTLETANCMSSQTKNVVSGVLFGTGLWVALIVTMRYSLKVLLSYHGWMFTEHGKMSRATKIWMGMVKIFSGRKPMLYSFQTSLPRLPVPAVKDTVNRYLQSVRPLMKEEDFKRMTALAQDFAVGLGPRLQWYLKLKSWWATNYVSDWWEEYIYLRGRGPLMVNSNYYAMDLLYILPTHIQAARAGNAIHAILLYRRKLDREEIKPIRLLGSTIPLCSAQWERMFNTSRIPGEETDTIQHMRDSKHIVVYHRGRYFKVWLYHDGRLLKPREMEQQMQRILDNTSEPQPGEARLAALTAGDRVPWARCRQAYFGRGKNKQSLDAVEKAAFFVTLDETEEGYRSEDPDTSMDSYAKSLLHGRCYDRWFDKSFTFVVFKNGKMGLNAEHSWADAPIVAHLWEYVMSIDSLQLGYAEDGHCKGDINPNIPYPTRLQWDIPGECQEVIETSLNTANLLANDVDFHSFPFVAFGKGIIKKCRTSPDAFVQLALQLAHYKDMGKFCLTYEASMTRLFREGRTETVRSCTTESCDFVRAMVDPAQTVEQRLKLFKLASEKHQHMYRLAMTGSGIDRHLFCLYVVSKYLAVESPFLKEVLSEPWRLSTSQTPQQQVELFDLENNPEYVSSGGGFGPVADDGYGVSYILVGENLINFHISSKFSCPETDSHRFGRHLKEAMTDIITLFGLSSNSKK
# [6] = target: T4, Carnitine O-palmitoyltransferase 2, mitochondrial (Rattus norvegicus, UniProt P18886); assay: (§2) SUPPLEMENTARY: Inhibition of Carnitine palmitoyltransferase 2
# T4 sequence (P18886 whole entry): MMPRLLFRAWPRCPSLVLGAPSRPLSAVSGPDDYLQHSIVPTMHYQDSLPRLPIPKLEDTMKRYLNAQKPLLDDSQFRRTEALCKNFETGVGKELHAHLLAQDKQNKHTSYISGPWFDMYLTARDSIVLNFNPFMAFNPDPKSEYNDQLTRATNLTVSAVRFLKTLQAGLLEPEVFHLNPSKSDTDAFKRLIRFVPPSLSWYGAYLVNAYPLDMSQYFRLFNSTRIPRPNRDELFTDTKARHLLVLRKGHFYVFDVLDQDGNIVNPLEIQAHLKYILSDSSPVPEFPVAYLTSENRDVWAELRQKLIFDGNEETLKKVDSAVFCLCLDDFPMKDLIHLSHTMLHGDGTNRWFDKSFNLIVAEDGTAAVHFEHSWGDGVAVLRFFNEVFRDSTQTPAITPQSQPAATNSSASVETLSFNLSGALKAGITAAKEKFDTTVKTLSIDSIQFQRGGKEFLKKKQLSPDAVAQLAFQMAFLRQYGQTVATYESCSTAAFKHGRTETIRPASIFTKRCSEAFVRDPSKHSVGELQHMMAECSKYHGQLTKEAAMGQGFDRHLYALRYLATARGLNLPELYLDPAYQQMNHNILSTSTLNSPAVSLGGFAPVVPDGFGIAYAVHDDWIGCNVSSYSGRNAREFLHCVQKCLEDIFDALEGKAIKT
# [7] = target: T5, Carnitine O-palmitoyltransferase 2, mitochondrial (Homo sapiens, UniProt P23786); assay: as §2
# T5 sequence (P23786 whole entry): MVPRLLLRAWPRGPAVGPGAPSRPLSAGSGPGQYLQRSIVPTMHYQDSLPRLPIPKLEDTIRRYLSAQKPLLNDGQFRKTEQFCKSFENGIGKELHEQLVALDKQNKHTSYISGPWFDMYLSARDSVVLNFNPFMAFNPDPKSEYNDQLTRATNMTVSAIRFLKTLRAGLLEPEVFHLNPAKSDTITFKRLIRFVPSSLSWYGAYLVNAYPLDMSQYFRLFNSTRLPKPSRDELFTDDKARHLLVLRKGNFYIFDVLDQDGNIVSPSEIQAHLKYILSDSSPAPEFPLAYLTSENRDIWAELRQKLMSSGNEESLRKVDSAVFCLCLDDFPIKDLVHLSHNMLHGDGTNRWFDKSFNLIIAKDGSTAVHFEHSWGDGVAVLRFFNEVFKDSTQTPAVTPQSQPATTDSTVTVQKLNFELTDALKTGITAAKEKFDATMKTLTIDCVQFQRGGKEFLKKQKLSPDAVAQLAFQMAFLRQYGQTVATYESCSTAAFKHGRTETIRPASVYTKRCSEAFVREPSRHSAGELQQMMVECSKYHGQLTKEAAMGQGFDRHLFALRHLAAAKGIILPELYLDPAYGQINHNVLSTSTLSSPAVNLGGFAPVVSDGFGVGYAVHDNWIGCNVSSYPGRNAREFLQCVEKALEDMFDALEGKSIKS
# [8] = SUPPLEMENTARY: Lipophilicity (log D) Determination by high-throughput shake-flask; type: physicochemical; conditions: octanol/water
smiles,measurement,setting,value
COc1ccc(Cl)cc1S(=O)(=O)N1CCc2ccc(C(=O)Nc3ccc(CC(=O)O)cc3)cc21,pIC50,[1],5.67
same,solubility kinetic,[2],532 µg/mL
same,Papp,[3],4.09 ×10⁻⁶ cm/s
same,pIC50,[4],7.49
same,pIC50,[5],7.01
same,pIC50,[6],< 4.00
same,pIC50,[7],< 4.00
same,logD,[8],0.33
COc1ccc(Cl)cc1S(=O)(=O)N1CCc2ccc(C(=O)Nc3nc(CC(=O)O)cs3)cc21,pIC50,[1],5.88
same,solubility kinetic,[2],48 µg/mL
same,Papp,[3],3.25 ×10⁻⁶ cm/s
same,pIC50,[4],7.82
same,pIC50,[5],7.65
same,pIC50,[6],< 4.00
same,pIC50,[7],< 4.00
same,logD,[8],0.17
O=C(O)c1ccc(NC(=O)c2ccc3ccn(S(=O)(=O)c4cccc(Cl)c4)c3c2)cc1,pIC50,[1],4.58
same,solubility kinetic,[2],1 µg/mL
same,Papp,[3],0.6 ×10⁻⁶ cm/s
same,pIC50,[4],8.01
same,pIC50,[5],7.78
same,pIC50,[6],5.48
same,pIC50,[7],5.64
same,logD,[8],2.99
Cc1cc(C)cc(S(=O)(=O)n2ccc3ccc(C(=O)Nc4ccc(C(=O)O)cc4)cc32)c1,pIC50,[1],< 4.00
same,solubility kinetic,[2],1 µg/mL
same,Papp,[3],1.46 ×10⁻⁶ cm/s
same,pIC50,[4],7.54
same,pIC50,[5],7.45
same,pIC50,[6],5.19
same,pIC50,[7],5.71
same,logD,[8],> 3
O=C1COc2ccc(-c3nc([C@H]4CCCCN4C(=O)COc4ccccc4)no3)cc2N1,pIC50,[1],< 4.00
same,solubility kinetic,[2],35 µg/mL
same,Papp,[3],3.74 ×10⁻⁶ cm/s
same,pIC50,[4],7.05
same,pIC50,[5],7.45
same,pIC50,[6],< 4.00
same,pIC50,[7],< 4.00
same,logD,[8],3.12
COc1ccc(Cl)cc1CN1C(=O)C(C)(C)c2ccc(C(=O)Nc3nc(CC(=O)O)cs3)cc21,pIC50,[1],6.27
same,solubility kinetic,[2],418 µg/mL
same,Papp,[3],0.96 ×10⁻⁶ cm/s
same,pIC50,[4],7.71
same,pIC50,[5],7.33
same,pIC50,[6],< 4.00
same,pIC50,[7],< 4.00
same,logD,[8],1.21
COc1ccc(Cl)cc1CN1C(=O)C(C)(C)c2ccc(C(=O)Nc3ccc(C(=O)O)cc3)cc21,pIC50,[1],5.66
same,solubility kinetic,[2],136 µg/mL
same,Papp,[3],0.94 ×10⁻⁶ cm/s
same,pIC50,[4],6.90
same,pIC50,[5],7.17
same,pIC50,[6],5.04
same,pIC50,[7],5.26
same,logD,[8],1.83
COc1ccc(Cl)cc1S(=O)(=O)N1CCOc2ccc(C(=O)Nc3ccc(CC(=O)O)cc3)cc21,pIC50,[1],6.08
same,solubility kinetic,[2],6 µg/mL
same,Papp,[3],1.86 ×10⁻⁶ cm/s
same,pIC50,[4],7.15
same,pIC50,[5],7.01
same,pIC50,[6],< 4.00
same,pIC50,[7],< 4.00
same,logD,[8],0.11
CCN1C(=O)CC(C)(C)c2ccc(-c3nc([C@H]4CCCCN4C(=O)COc4ccccc4)no3)cc21,pIC50,[1],< 4.00
same,solubility kinetic,[2],< 1 µg/mL
same,Papp,[3],0.4 ×10⁻⁶ cm/s
same,pIC50,[4],6.76
same,pIC50,[5],6.77
same,pIC50,[6],< 4.00
same,pIC50,[7],< 4.00
same,logD,[8],> 3
O=C(COc1ccccc1)N1CCCC[C@@H]1c1noc(C2CCCC2)n1,pIC50,[1],< 4.00
same,solubility kinetic,[2],20 µg/mL
same,Papp,[3],4.38 ×10⁻⁶ cm/s
same,pIC50,[4],6.97
same,pIC50,[5],6.74
same,pIC50,[6],< 4.00
same,pIC50,[7],< 4.00
same,logD,[8],3.08
